From patent publication US9873693B2 (Sunesis Pharmaceuticals, Inc., priority 2006, dated 2018)
Read-outs that look alike come from different tables or passages of the source.

What was measured:
full-length PDK1 = full-length PDK1 (Homo sapiens (Human), UniProt O15530); assay: PDK phosphorylation of AKT and PKC-PIFtide in presence of PIP3 vesicles; type: biochemical; conditions: substrates PKC-PIFtide vs AKT2
Description: PDK phosphorylation of two different substrates, AKT and PKC-PIFtide, was measured in presence of pre-formed phophoinositol lipid PIP3 vesicles. 5 nM full-length PDK1 and was incubated with 100 nM substrate (unphosphorylated, full-length AKT2 or PKC-PIFtide, Invitrogen cat#P2925) in presence of test compound or DMSO at room temperature for 3 hours. Final buffer conditions were 10 mM Tris pH 7.5 buffer containing 10 mM MgCl2, 0.002% Triton X-100, 1 mM DTT, 0.2 mg/ml BSA, 10 uM PtdIns(3,4,5)P3 (Matreya, Inc), 100 uM DOPC:DOPS (Avanti Polar Lipids), and 0.5 uCi γ^33P-ATP (3000 Ci/mmol, Perkin-Elmer.)
Kinase reactions were stopped with addition of 50 uM non-labelled ATP and 5 mM EDTA, then acidified with 0.5% final concentration phosphoric acid. Labeled proteins were collected in Whatman P81 filter plates and washed with three 150 ul volumes of 0.5% phosphoric acid.
Lipid vesicles were pre-formed as follows. 15 mg (3 ampules) DOPC:DOPS was resuspended in 898 ul 10 mM HEPES pH 7.4. 1 mg PIP3 was resuspended in 1000 ul 10 mM HEPES pH 7.4. 964 ul of PIP3 was mixed with 800 ul DOPC:DOPS and diluted with 18.2 ml 10 mM HEPES pH 7.4 and mixed by vortexing. The lipid mixture was subjected to 5 cycles of freeze/thaw using liquid nitrogen and a 50° C. water bath. Aliquot of lipids were flash frozen and stored at −20° C.

phosphorylated PDK1 = phosphorylated PDK1 (Homo sapiens (Human), UniProt O15530); assay: PDK1 kinase assay (coupled PDK1/AKT/FAM-crosstide, IMAP); type: biochemical; conditions: 0.5 nM phosphorylated PDK1, 24 μM ATP; read-out: Inhibition of phospo-PDK1 in vitro IC50
Chain of phosphorylated PDK1 (O15530 51-360): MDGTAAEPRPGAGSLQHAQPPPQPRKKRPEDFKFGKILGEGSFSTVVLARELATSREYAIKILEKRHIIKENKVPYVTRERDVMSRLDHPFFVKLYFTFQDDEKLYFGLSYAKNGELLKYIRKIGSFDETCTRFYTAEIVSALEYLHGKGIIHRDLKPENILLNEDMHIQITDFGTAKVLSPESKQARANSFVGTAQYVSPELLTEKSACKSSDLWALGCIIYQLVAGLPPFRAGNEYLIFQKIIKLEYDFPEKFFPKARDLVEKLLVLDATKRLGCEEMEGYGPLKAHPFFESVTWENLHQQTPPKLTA

dephosphorylated PDK1 = dephosphorylated PDK1 (Homo sapiens (Human), UniProt O15530); assay: as above; type: biochemical; conditions: 25 nM un-phosphorylated PDK1, 24 μM ATP; read-out: Inhibition of dephospo-PDK1 in vitro IC50
Chain of dephosphorylated PDK1 (O15530 51-360): as above
Outline: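 The FAM-crosstide phosphorylation readout was IMAP polarization (ex 485/em 530 nm, 2 h binding), with 4-parameter fits of ΔmP data. The reaction ran 30 min at 25 °C with 24 μM ATP, and contained 25 nM phosphatase-treated PDK1 (aa 51–360) plus 30 nM unphosphorylated AKT2-PIFtide and 100 nM substrate. Buffer was 10 mM Tris pH 7.2, 10 mM MgCl2, 0.01% Triton X-100 and 1 mM DTT.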

phospho-akt (Thr308) = phospho-akt (Thr308) MSD ELISA in PC-3 cells; type: cell-based; conditions: Homo sapiens, PC-3, 2 h, PC-3 cells, 2 hours, no serum
Outline: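 Read-out is MSD electrochemiluminescence after lysate capture overnight at 4 degrees and 1 hr RT detection-antibody step. Before lysis, overnight-plated PC-3 cells received three-fold serial dilutions of inhibitor in serum-free medium, with DMSO-only high controls.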

[1] = tested on: phospho-akt (thr308), phospho-PKC delta (thr505), phospho-PKC (thr538), phospho-PKC zeta (thr410); assay: Phospho-PKC detection using immunoblot in PC-3 cells; type: cell-based; conditions: FIG. 2; at 2 hours and 18 hours
Description: The Phospho-PKC Detection was performed using immunoblot analysis as follows. The cell activity of test compounds, were assessed using immunoblot analysis for phospho-akt (thr308), phospho-PKC delta (thr505), phospho-PKC (thr538) and phospho-PKC zeta (thr410).
PC-3 prostate cells were plated in a 100 mm tissue culture dish in F12K media (Invitrogen, Carlsbad, Calif.) plus 10% FBS (Invitrogen) and placed in incubator overnight. The stocks of test compounds were a 50 mM solution in DMSO. For some test compounds a 5 mM solution was made in DMSO then directly diluted (1 μM and 5 μM final concentration) into fresh media with no serum. For other test compounds the 50 mM stock was directly diluted (10 μM and 30 μM final concentrations) into fresh media with no serum. For the control, DMSO was added to media with no serum at a final concentration of 0.1%. Cells were incubated with compound for 2 hrs or 18 hrs at 37° C. Cells were harvested and washed in PBS and subjected to centrifugation at 3,300 rpm for 5 minutes. The cell pellet was lysed in 150 μl Pierce (Rockford, Ill.) M-PER lysis buffer plus protease inhibitors and phosphatase inhibitors (Sigma, St. Louis, Mo.) for 30 minutes on ice followed by centrifugation at 13,000 rpm for 5 minutes. The protein content of the supernatant was assayed using DC Protein Assay (BioRad, Hercules, Calif.). […]

Phospho-T308 Akt = Phospho-T308 Akt detection using immunoblot (western blot) in PC-3 cells; type: cell-based
Outline: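 PC-3 prostate cells, cultured overnight in F12K plus 10% FBS, were treated for 2 h at 37 °C in serum-free medium with compound A (1000× DMSO dilutions). Lysate protein was immunoblotted with anti-phospho-Akt Thr308. Bands were quantified by background-subtracted densitometry, giving EC50 by non-linear regression and percent decrease at 2 μM and 5 μM.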

[2] = read-out: Inhibition of P308 Akt in cells using MSD EC50
[3] = read-out: Reduction of Cellular Levels of Akt p308 By MSD ELISA (EC50 μM)

Chain of full-length PDK1 (O15530 whole entry): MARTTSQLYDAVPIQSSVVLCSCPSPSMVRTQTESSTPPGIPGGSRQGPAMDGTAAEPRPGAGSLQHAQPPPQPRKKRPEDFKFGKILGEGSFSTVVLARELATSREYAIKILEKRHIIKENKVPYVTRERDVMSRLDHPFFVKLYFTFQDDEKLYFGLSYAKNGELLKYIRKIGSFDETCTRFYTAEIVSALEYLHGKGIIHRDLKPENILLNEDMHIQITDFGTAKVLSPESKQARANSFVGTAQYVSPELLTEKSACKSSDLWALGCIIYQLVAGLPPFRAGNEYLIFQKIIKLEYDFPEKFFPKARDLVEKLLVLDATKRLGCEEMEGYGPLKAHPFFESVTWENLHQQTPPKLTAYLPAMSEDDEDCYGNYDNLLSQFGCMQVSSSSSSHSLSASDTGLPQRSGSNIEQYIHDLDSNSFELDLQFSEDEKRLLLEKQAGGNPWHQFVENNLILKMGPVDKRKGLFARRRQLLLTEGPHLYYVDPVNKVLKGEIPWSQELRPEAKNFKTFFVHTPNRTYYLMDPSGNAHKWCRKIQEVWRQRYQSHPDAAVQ

O=C(NCc1ccc(-c2c[nH]c3ncccc23)s1)c1cccn(Cc2ccc(F)c(F)c2)c1=O [Cpd 2]
Ratio of PIP3 IC50 with PKCtide to PIP3 IC50 with AKT (full-length PDK1): 36.7 | IC50 (phosphorylated PDK1): < 500 nM | IC50 (dephosphorylated PDK1): < 500 nM | EC50 (phospho-akt (Thr308); [2]): 1 to 5 µM | EC50 (phospho-akt (Thr308); [3]): 1 to 5 µM

COc1ccnc(NCCC#CCNC(=O)c2cccn(Cc3ccc(F)c(F)c3)c2=O)n1 [Cpd 109]
Ratio of PIP3 IC50 with PKCtide to PIP3 IC50 with AKT (full-length PDK1): 51.8 | IC50 (phosphorylated PDK1): < 500 nM | IC50 (dephosphorylated PDK1): < 500 nM

O=C(NCCCCc1c[nH]c2ncccc12)c1cccn(Cc2ccc(F)c(F)c2)c1=O [Cpd 110]
Ratio of PIP3 IC50 with PKCtide to PIP3 IC50 with AKT (full-length PDK1): 13.5 | IC50 (phosphorylated PDK1): < 500 nM | IC50 (dephosphorylated PDK1): < 500 nM

O=C(N[C@@H](COc1ccc2[nH]c(=O)[nH]c2c1)c1ccccc1)c1cccn(Cc2ccc(F)c(F)c2)c1=O [Cpd 144]
inhibition of PDK1 mediated phosphorylation of Akt relative to PKC isoforms [1]: selective inhibition of PDK1 mediated phosphorylation of Akt relative to PDK1 mediated phosphorylation of PKC isoforms | Reduction of Cellular Levels of Akt p308 By Western (Phospho-T308 Akt; 2 hour incubation, concentration not given in Table 2): bbb (inhibition of more than 75%) | inhibition at 2 µM (Phospho-T308 Akt; Homo sapiens, at 2 μM, read-out: Percent Inhibition of phospho-Akt (308) By Western): > 75% | EC50 (phospho-akt (Thr308); [2]): < 1 µM | EC50 (phospho-akt (Thr308); [3]): < 1 µM
